Experimental data taken from patent US20210107874A1, “PHARMACEUTICAL FORMULATION OF CROTONYLAMINOPYRIDINE SALT” (priority 2017, published 2021).
Several values for one entry are separate records, joined by “and”; a condition that tells them apart may be missing. Equal values may be shown once. Read-outs that look alike come from different tables or passages of the source.

Test: PK studies of formulations, plasma by HPLC-MS/MS
Type: in vivo
Details: Cattle
Method: The following formulations were prepared and administered to animals. Blood samples were collected at pre-defined time points and the amount of compound present in plasma at the time of sampling was determined by HPLC-MS/MS. Pharmacokinetic parameters were then calculated: Cmax, Tmax, Tlast, AUC. [table]

[1] = FormO50 (L-tartaric acid, NaOH up to pH 4.4, water), SC, 1 mg/kg
[2] = FormO50 (L-tartaric acid, NaOH up to pH 4.4, water), SC, 5 mg/kg
[3] = FormO100 (L-tartaric acid, NaOH up to pH 4.4, water), SC, 1.5 mg/kg

Tlast (FormO50 (L-tartaric acid, NaOH up to pH 4.4, water), SC, 0.5 mg/kg): 4.4 h
Tlast (FormO50 (L-tartaric acid, NaOH up to pH 4.4, water), SC, 0.75 mg/kg): 5.6 h
AUC [1]: 1149 ng·h/mL and 969 ng·h/mL
Cmax [1]: 705 ng/mL and 815 ng/mL
Tlast [1]: 6 h and 7 h and 6.8 h
AUC [2]: 8817 ng·h/mL
Cmax [2]: 5975 ng/mL
Tlast [2]: 8 h
Tlast (FormO50 (L-tartaric acid, NaOH up to pH 4.4, water), SC, 10 mg/kg): 12 h
AUC [3]: 1422 ng·h/mL
Cmax [3]: 862 ng/mL
Tlast [3]: 10.0 h and 8.5 h
Tmax [3]: 22.8 min
Tlast (FormU100 (L-tartaric acid, propylene glycol 400 mg, benzylalcohol, water), SC, 1.5 mg/kg): 10.0 h
Tlast (FormV100 (L-tartaric acid, propylene glycol 500 mg, benzylalcohol, water), SC, 1.5 mg/kg): 10.0 h
Tlast (FormW100 (L-tartaric acid, propylene glycol 300 mg, benzylalcohol, water), SC, 1.5 mg/kg): 9.5 h
AUC (bovine, plasma, sc, 0.5 mg/kg, pH 4.4, FormO50 (L-tartaric acid, NaOH up to pH 4.4, water), 0.5 mg/kg, read-out: AUC): 371 ng·h/mL
Cmax (bovine, plasma, sc, 0.5 mg/kg, pH 4.4, FormO50 (L-tartaric acid, NaOH up to pH 4.4, water), 0.5 mg/kg, read-out: Cmax): 305 ng/mL
Tmax (bovine, plasma, sc, 0.5 mg/kg, pH 4.4, FormO50 (L-tartaric acid, NaOH up to pH 4.4, water), 0.5 mg/kg, read-out: Tmax): 18 min
AUC (bovine, plasma, sc, 0.75 mg/kg, pH 4.4, FormO50 (L-tartaric acid, NaOH up to pH 4.4, water), 0.75 mg/kg, read-out: AUC): 616 ng·h/mL
Cmax (bovine, plasma, sc, 0.75 mg/kg, pH 4.4, FormO50 (L-tartaric acid, NaOH up to pH 4.4, water), 0.75 mg/kg, read-out: Cmax): 397 ng/mL
Tmax (bovine, plasma, sc, 0.75 mg/kg, pH 4.4, FormO50 (L-tartaric acid, NaOH up to pH 4.4, water), 0.75 mg/kg, read-out: Tmax): 30 min
AUC (bovine, plasma, sc, 1 mg/kg, pH 4.4, FormO50 (L-tartaric acid, NaOH up to pH 4.4, water), 1 mg/kg, read-out: AUC): 973 ng·h/mL
Cmax (bovine, plasma, sc, 1 mg/kg, pH 4.4, FormO50 (L-tartaric acid, NaOH up to pH 4.4, water), 1 mg/kg, read-out: Cmax): 521 ng/mL
Tmax (bovine, plasma, sc, 1 mg/kg, pH 4.4, FormO50 (L-tartaric acid, NaOH up to pH 4.4, water), 1 mg/kg, read-out: Tmax): 36 min
AUC (bovine, plasma, sc, 1.5 mg/kg, FormU100 (L-tartaric acid, propylene glycol 400 mg, benzylalcohol, water), 1.5 mg/kg, read-out: AUC): 1680 ng·h/mL
Cmax (bovine, plasma, sc, 1.5 mg/kg, FormU100 (L-tartaric acid, propylene glycol 400 mg, benzylalcohol, water), 1.5 mg/kg, read-out: Cmax): 593 ng/mL
Tmax (bovine, plasma, sc, 1.5 mg/kg, FormU100 (L-tartaric acid, propylene glycol 400 mg, benzylalcohol, water), 1.5 mg/kg, read-out: Tmax): 37.8 min
AUC (bovine, plasma, sc, 1.5 mg/kg, FormV100 (L-tartaric acid, propylene glycol 500 mg, benzylalcohol, water), 1.5 mg/kg, read-out: AUC): 1520 ng·h/mL
Cmax (bovine, plasma, sc, 1.5 mg/kg, FormV100 (L-tartaric acid, propylene glycol 500 mg, benzylalcohol, water), 1.5 mg/kg, read-out: Cmax): 540 ng/mL
Tmax (bovine, plasma, sc, 1.5 mg/kg, FormV100 (L-tartaric acid, propylene glycol 500 mg, benzylalcohol, water), 1.5 mg/kg, read-out: Tmax): 105 min
AUC (bovine, plasma, sc, 1.5 mg/kg, FormW100 (L-tartaric acid, propylene glycol 300 mg, benzylalcohol, water), 1.5 mg/kg, read-out: AUC): 1520 ng·h/mL
Cmax (bovine, plasma, sc, 1.5 mg/kg, FormW100 (L-tartaric acid, propylene glycol 300 mg, benzylalcohol, water), 1.5 mg/kg, read-out: Cmax): 743 ng/mL
Tmax (bovine, plasma, sc, 1.5 mg/kg, FormW100 (L-tartaric acid, propylene glycol 300 mg, benzylalcohol, water), 1.5 mg/kg, read-out: Tmax): 52.8 min
AUC (bovine, plasma, sc, 1.5 mg/kg, pH 4.4, FormO100 (L-tartaric acid, NaOH up to pH 4.4, water), 1.5 mg/kg, read-out: AUC): 1680 ng·h/mL
Cmax (bovine, plasma, sc, 1.5 mg/kg, pH 4.4, FormO100 (L-tartaric acid, NaOH up to pH 4.4, water), 1.5 mg/kg, read-out: Cmax): 1010 ng/mL
Tmax (bovine, plasma, sc, 1.5 mg/kg, pH 4.4, FormO100 (L-tartaric acid, NaOH up to pH 4.4, water), 1.5 mg/kg, read-out: Tmax): 18.6 min
AUC (bovine, plasma, sc, 5 mg/kg, pH 4.4, FormO50 (L-tartaric acid, NaOH up to pH 4.4, water), 5 mg/kg, read-out: AUC): 7890 ng·h/mL
Cmax (bovine, plasma, sc, 5 mg/kg, pH 4.4, FormO50 (L-tartaric acid, NaOH up to pH 4.4, water), 5 mg/kg, read-out: Cmax): 3310 ng/mL
Tmax (bovine, plasma, sc, 5 mg/kg, pH 4.4, FormO50 (L-tartaric acid, NaOH up to pH 4.4, water), 5 mg/kg, read-out: Tmax): 24 min
AUC (bovine, plasma, sc, 10 mg/kg, pH 4.4, FormO50 (L-tartaric acid, NaOH up to pH 4.4, water), 10 mg/kg, read-out: AUC): 18800 ng·h/mL
Cmax (bovine, plasma, sc, 10 mg/kg, pH 4.4, FormO50 (L-tartaric acid, NaOH up to pH 4.4, water), 10 mg/kg, read-out: Cmax): 5930 ng/mL
Tmax (bovine, plasma, sc, 10 mg/kg, pH 4.4, FormO50 (L-tartaric acid, NaOH up to pH 4.4, water), 10 mg/kg, read-out: Tmax): 36 min
Structure (SMILES): COc1cc(NCCNC(=O)/C=C/C(C)(F)F)ccn1 [Compound 5]
